Data: patent US9856254B2, “Alkoxy substituted imidazoquinolines” (3M INNOVATIVE PROPERTIES COMPANY, priority 2003, dated 2018)
Counter-ions that a name gives are not always drawn.

Structure (SMILES) | melting point
CCCc1nc2c(N)nc3cc(OCCCCCCNS(C)(=O)=O)ccc3c2n1CCCCNS(C)(=O)=O [Example 47, N-(4-{4-Amino-7-[6-(methanesulfonylamino)hexyloxy]-2-propyl-1H-imidazo[4,5-c]quinolin-1-yl}butyl)methanesulfonamide] | 138 to 140 °C
CCOCc1nc2c(N)nc3cc(OCCCN4CCCC4=O)ccc3c2n1CCCCN1CCCS1(=O)=O [Example 402, 1-(3-{[4-Amino-1-[4-(1,1-dioxidoisothiazolidin-2-yl)butyl]-2-(ethoxymethyl)-1H-imidazo[4,5-c]quinolin-7-yl]oxy}propyl)pyrrolidin-2-one] | 142 to 144 °C
CCCn1c(COCC)nc2c(N)nc3ccc(OCC(=O)N4CCN(C(=O)OC(C)(C)C)CC4)cc3c21 [Example 404, tert-Butyl 4-({[4-amino-2-(ethoxymethyl)-1-propyl-1H-imidazo[4,5-c]quinolin-8-yl]oxy}acetyl)piperazine-1-carboxylate] | 192 to 197 °C (dec.)
CCCn1c(COCC)nc2c(N)nc3ccc(OC4CCN(C(=O)OC(C)(C)C)CC4)cc3c21 [Example 410, tert-Butyl 4-{[4-amino-2-(ethoxymethyl)-1-propyl-1H-imidazo[4,5-c]quinolin-8-yl]oxy}piperidine-1-carboxylate] | 179.5 to 181 °C
Cc1nc2c(N)nc3cc(OCCC4CCN(C(=O)N5CCOCC5)CC4)ccc3c2n1CC(C)C [Example 28, 2-Methyl-1-(2-methylpropyl)-7-{2-[1-(morpholin-4-ylcarbonyl)piperidin-4-yl]ethoxy}-1H-imidazo[4,5-c]quinolin-4-amine] | 205 to 208 °C
CCc1nc2c(N)nc3cc(OCCNC(=O)NC(C)C)ccc3c2n1CC1CCOCC1 [Example 651, N-(2-{[4-Amino-2-ethyl-1-(tetrahydro-2H-pyran-4-ylmethyl)-1H-imidazo[4,5-c]quinolin-7-yl]oxy}ethyl)-N′-isopropylurea] | 223 to 225 °C
CCc1nc2c(N)nc3cc(OCCN4CCOCC4)ccc3c2n1CC1CCOCC1 [Example 568, 2-Ethyl-7-(2-morpholin-4-ylethoxy)-1-(tetrahydro-2H-pyran-4-ylmethyl)-1H-imidazo[4,5-c]quinolin-4-amine] | 230 to 232 °C
CCCc1nc2c(N)nc3cc(OCCCNC(=O)N4CCOCC4)ccc3c2n1CC(C)C [Example 20, N-(3-{[4-Amino-2-propyl-1-(2-methylpropyl)-1H-imidazo[4,5-c]quinolin-7-yl]oxy}propyl)morpholine-4-carboxamide] | 145 °C
CCCn1c(CCO)nc2c(N)nc3cc(OCCCNC(=O)c4cccnc4)ccc3c21 [Example 396, N-(3-{[4-Amino-2-(2-hydroxyethyl)-1-propyl-1H-imidazo[4,5-c]quinolin-7-yl]oxy}propyl)nicotinamide] | 183.5 to 184.5 °C
CCCCc1nc2c(N)nc3ccc(OCCC4CCN(C(=O)C(C)C)CC4)cc3c2n1C [Example 39, 1-{4-[2-(4-Amino-2-butyl-1-methyl-1H-imidazo[4,5-c]quinolin-8-yloxy)ethyl]piperidin-1-yl}-2-methylpropan-1-one] | 189.4 to 192.6 °C
CCCn1c(COCC)nc2c(N)nc3ccc(OC4CCN(C(=O)C(C)C)CC4)cc3c21 [Example 414, 2-(Ethoxymethyl)-8-[(1-isobutyrylpiperidin-4-yl)oxy]-1-propyl-1H-imidazo[4,5-c]quinolin-4-amine] | 177 to 179 °C
CCCCc1nc2c(N)nc3ccc(OCCC4CCN(C(=O)C5CCCC5)CC4)cc3c2n1C [Example 40, 2-Butyl-8-{2-[1-(cyclopentylcarbonyl)piperidin-4-yl]ethoxy}-1-methyl-1H-imidazo[4,5-c]quinolin-4-amine] | 147.2 to 150.1 °C
Cc1nc2c(N)nc3cc(OCCC4CCN(C(=O)C(C)C)CC4)ccc3c2n1CC(C)C [Example 26, 1-(4-{2-[4-Amino-2-methyl-1-(2-methylpropyl)-1H-imidazo[4,5-c]quinolin-7-yloxy]ethyl}piperidin-1-yl)-2-methylpropan-1-one] | 205.1 to 207.1 °C
CCCCc1nc2c(N)nc3ccc(OCC(=O)N(CC)CC)cc3c2n1C [Example 35, 2-[(4-Amino-2-butyl-1-methyl-1H-imidazo[4,5-c]quinolin-8-yl)oxy]-N,N-diethylacetamide] | 185.9 to 188.1 °C

Other lines, results leading:

melting point | Structure (SMILES)
213 °C | CCCn1c(COCC)nc2c(N)nc3cc(OCC(=O)N4CCOCC4)ccc3c21 [Example 648, 2-(Ethoxymethyl)-7-(2-morpholin-4-yl-2-oxoethoxy)-1-propyl-1H-imidazo[4,5-c]quinolin-4-amine]
170 to 171 °C | CCCn1c(CCOC)nc2c(N)nc3cc(OCCCS(C)(=O)=O)ccc3c21 [Example 392, 2-(2-Methoxyethyl)-7-[3-(methylsulfonyl)propoxy]-1-propyl-1H-imidazo[4,5-c]quinolin-4-amine]
164 to 167 °C | CCCn1c(COCC)nc2c(N)nc3ccc(OCCCCCCNS(C)(=O)=O)cc3c21 [Example 409, N-(6-{[4-Amino-2-(ethoxymethyl)-1-propyl-1H-imidazo[4,5-c]quinolin-8-yl]oxy}hexyl)methanesulfonamide]
162 to 164 °C | CCOCc1nc2c(N)nc3cc(OC4CCN(C(C)=O)CC4)ccc3c2n1CC(C)(C)O [Example 656, 1-[7-[(1-Acetylpiperidin-4-yl)oxy]-4-amino-2-(ethoxymethyl)-1H-imidazo[4,5-c]quinolin-1-yl]-2-methylpropan-2-ol]
190 to 194 °C | CCOCc1nc2c(N)nc3cc(OCCCCCCNS(C)(=O)=O)ccc3c2n1CC(C)(C)NC(=O)NC(C)C [Example 371, N-(6-{[4-Amino-2-(ethoxymethyl)-1-(2-{[(isopropylamino)carbonyl]amino}-2-methylpropyl)-1H-imidazo[4,5-c]quinolin-7-yl]oxy}hexyl)methanesulfonamide]
136 to 138 °C | CCCn1c(COCC)nc2c(N)nc3ccc(OCCCCCCNC(=O)C(C)C)cc3c21 [Example 407, N-(6-{[4-Amino-2-(ethoxymethyl)-1-propyl-1H-imidazo[4,5-c]quinolin-8-yl]oxy}hexyl)-2-methylpropanamide]
202.5 to 204.5 °C | CCCn1c(COCC)nc2c(N)nc3ccc(OCCNC(=O)C4CCCO4)cc3c21 (stereo not drawn) [Example 6, N-(2-{[4-Amino-2-(ethoxymethyl)-1-propyl-1H-imidazo[4,5-c]quinolin-8-yl]oxy}ethyl)tetrahydrofuran-2-carboxamide]
179 to 181 °C | CCCc1nc2c(N)nc3cc(OCCCNC(=O)C(C)C)ccc3c2n1CC(C)C [Example 15, N-{3-[4-Amino-1-(2-methylpropyl)-2-propyl-1H-imidazo[4,5-c]quinolin-7-yloxy]propyl}-2-methylpropanamide]
90 to 110 °C | CCOCc1nc2c(N)nc3cc(OCCCCCCNC(C)=O)ccc3c2n1CC(C)(C)NC(=O)NC(C)C [Example 370, N-(6-{[4-Amino-2-(ethoxymethyl)-1-(2-{[(isopropylamino)carbonyl]amino}-2-methylpropyl)-1H-imidazo[4,5-c]quinolin-7-yl]oxy}hexyl)acetamide]
226.9 to 228.2 °C | Cc1nc2c(N)nc3cc(OCCNC(=O)OC(C)(C)C)ccc3c2n1CC(C)C [Example 9, tert-Butyl 2-{[4-amino-2-methyl-1-(2-methylpropyl)-1H-imidazo[4,5-c]quinolin-7-yl]oxy}ethylcarbamate]
163 to 165 °C | CCOCc1nc2c(N)nc3cc(OCCN)ccc3c2n1CC(C)(C)O [Example 654, 1-[4-Amino-7-(2-aminoethoxy)-2-(ethoxymethyl)-1H-imidazo[4,5-c]quinolin-1-yl]-2-methylpropan-2-ol]
173 to 175 °C | CCCn1c(COCC)nc2c(N)nc3ccc(OC4CCOC4)cc3c21 (stereo not drawn) [Example 406, 2-(Ethoxymethyl)-1-propyl-8-(tetrahydrofuran-3-yloxy)-1H-imidazo[4,5-c]quinolin-4-amine]
176 to 180 °C | CCOCc1nc2c(N)nc3cc(OCCCCCCNS(C)(=O)=O)ccc3c2n1CC(C)(C)NS(C)(=O)=O [Example 45, N-(2-{4-Amino-2-ethoxymethyl-7-[6-(methanesulfonylamino)hexyloxy]-1H-imidazo[4,5-c]quinolin-1-yl}-1,1-dimethylethyl)methanesulfonamide]
110 to 120 °C | CCOCc1nc2c(N)nc3cc(OCCCCCCNC(=S)NC(C)C)ccc3c2n1CC(C)(C)NC(C)=O [Example 368, N-(2-{4-Amino-2-(ethoxymethyl)-7-[(6-{[(isopropylamino)carbonothioyl]amino}hexyl)oxy]-1H-imidazo[4,5-c]quinolin-1-yl}-1,1-dimethylethyl)acetamide]
194 to 195 °C | CCCn1c(COCC)nc2c(N)nc3cc(OC4CCN(C(=O)OC(C)(C)C)CC4)ccc3c21 [Example 415, tert-Butyl 4-{[4-amino-2-(ethoxymethyl)-1-propyl-1H-imidazo[4,5-c]quinolin-7-yl]oxy}piperidine-1-carboxylate]
166.5 to 168.5 °C | CCCc1nc2c(N)nc3cc(OCCCNS(C)(=O)=O)ccc3c2n1CC(C)C [Example 11, N-{3-[4-Amino-1-(2-methylpropyl)-2-propyl-1H-imidazo[4,5-c]quinolin-7-yloxy]propyl}methanesulfonamide]
191 to 192 °C | CCCn1c(COCC)nc2c(N)nc3cc(OCCN4CCOCC4)ccc3c21 [Example 649, 2-(Ethoxymethyl)-7-(2-morpholin-4-ylethoxy)-1-propyl-1H-imidazo[4,5-c]quinolin-4-amine]
> 250 °C | CCOCc1nc2c(N)nc3cc(OCCCN4CCCC4=O)ccc3c2n1CCCCN (as salt: hydrochloride) [Example 398, 1-(3-{[4-Amino-1-(4-aminobutyl)-2-(ethoxymethyl)-1H-imidazo[4,5-c]quinolin-7-yl]oxy}propyl)pyrrolidin-2-one dihydrochloride]
133.5 to 135 °C | CCCn1c(CCOC)nc2c(N)nc3cc(OCCCNC(=O)OC(C)(C)C)ccc3c21 [Example 393, tert-Butyl 3-{[4-amino-2-(2-methoxyethyl)-1-propyl-1H-imidazo[4,5-c]quinolin-7-yl]oxy}propylcarbamate]
